Measurements as given in patent US12421496B2, “Method for producing natural killer cell and use thereof” (KOREA RESEARCH INSTITUTE OF BIOSCIENCE AND BIOTECHNOLOGY, priority 2017, dated 2025).

B1: IL-7: human interleukin 7, cytokine additive (protein, UniProt P13232 26-177, looked up)
Interleukin-7: DCDIEGKDGKQYESVLMVSIDQLLDSMKEIGSNCLNNEFNFFKRHICDANKEGMFLFRAARKLRQFLKMNSTGDFDLHLLKVSEGTTILLNCTGQVKGRKPAALGEAQPTKSLEENKSLKEQKKLNDLCFLKRLLQEIKTCWNKILMGTKEH

What was measured:
[1] = test system: PBMC cells into which OSKM was introduced; experiment: Efficiency of direct reprogramming depending on composition of NKIM-II medium; assay type: cell-based, human; conditions: added to NKIM-II medium, cultured for 29 days after 6 days in NKIM-I
Procedure: (§1) After introducing reprogramming factors (Oct4, Sox2, Klf4, and Myc) into PBMC cultured in the NKIM-I medium and NKIM-II medium, a mixture additive was added to the medium for analysis to promote the production capacity of natural killer cells produced by direct reprogramming.
In the case of NKIM-II medium, after introducing OSKM into PBMC cells, the following day, 1×10^5 transformed cells were added to a 48-well culture dish and cultured in NKIM-I medium for 6 days, and then these cells were cultured for 29 days in a medium in which StemRegenin I, which is an aryl hydrocarbon receptor antagonist, CH-223191, or FICZ, which is an aryl hydrocarbon receptor agonist, was added to NKIM-II.

[2] = test system: PBMC into which OSKM was introduced; experiment: Efficiency of direct reprogramming depending on composition of NKIM-I medium; assay type: cell-based, human; conditions: single additive in NKIM-I medium compared with the condition without additives
Procedure: as §1
Specifically, in the case of NKIM-I medium, after introducing OSKM into PBMC, the following day, 1×10^5 transformed cells were added to a 48-well culture dish in the reprogramming culture process with different combinations of 5 μM CHIR 99021, 2 mM LiCl, […], and 20 ng/mL human IL-15 in NKIM-I medium, and the production capacity of CD56+ induced natural killer cells was thereby confirmed.

PBMC (CD34−CD56−) cells = experiment: Role of GSK3β inhibitor in direct reprogramming from PBMC to natural killer cells, flow cytometry; assay type: cell-based, human; conditions: when CT99021 (5 μM) was not added to NKIM-I medium, compared with added; 24th day
Procedure: On the 24th day when direct reprogramming was started as in Example 1, the cells were recovered and stained using antibodies against CD56 and CD4 attached with fluorescence and then the group of natural killer cells (CD56^+ and CD4^−) was analyzed by flow cytometry.

SW620 = experiment: In vivo anti-cancer effect, subcutaneous SW620 tumor in nude mice; parameters: species or system Balb/c-nude mouse; conditions: 2 mg/kg i.p. every other day for two weeks; day 28
Procedure: In addition, in vivo experiments were performed using mice to verify the anti-cancer effect of induced natural killer cells. The day after subcutaneous injection of 2×10^6 Sw620 into the back of 8-week-old nude mice (Balb/c-nude mouse, average weight 20 g to 25 g), induced natural killer cells (5×10^6, 1.5×10^7) and 2 mg/kg of doxorubicin were injected. Induced natural killer cells were injected intravenously (i.v.) twice on D1 and D4, and doxorubicin was injected intraperitoneally (i.p) every two days (every other day) for two weeks. On the 28th day, the mice of each group were sacrificed by cervical dislocation technique, and the protruding cancer masses formed under the skin of the mice of each group were extracted. The extracted Sw620 cancer was compared by group to confirm the anti-cancer effect of induced natural killer cells (FIG. 13A).

Row | Molecule | yield of induced natural killer cells [1] | production of CD56+CD3− induced natural killer cells [2] | further results
1 | Cc1ccccc1N=Nc1ccc(NC(=O)c2ccnn2C)c(C)c1 [CH-223191] | significantly increased | – | –
2 | Cc1c[nH]c(-c2cnc(NCCNc3ccc(C#N)cn3)nc2-c2ccc(Cl)cc2Cl)n1 [CT99021] | – | effect of promoting the production | differentiation into natural killer cells (CD56+ and CD4−) (PBMC (CD34−CD56−) cells): significantly lowered
3 | O=Cc1c2[nH]c3ccccc3c2cc2[nH]c3ccccc3c12 [FICS] | significantly reduced | – | –
4 | [Cl-].[Li+] [LiCl] | – | effect of promoting the production | –
5 | CC(C)n1cnc2c(NCCc3ccc(O)cc3)nc(-c3csc4ccccc34)nc21.Cl [StemRegenin I, (4-(2-((2-benzo[b]thiphen-3-yl)-9-isopropyl-9H-purin-6-yl)amino)ethyl)phenol hydrochloride] | significantly increased | effect of promoting the production | –
6 | COc1cccc2c1C(=O)c1c(O)c3c(c(O)c1C2=O)C[C@@](O)(C(=O)CO)C[C@@H]3O[C@H]1C[C@H](N)[C@H](O)[C@H](C)O1 [doxorubicin] | – | – | tumor size (SW620): 262 mm^3
7 | IL-15: human interleukin 15, cytokine additive | – | effect of promoting the production | –
8 | B1 | – | effect of promoting the production | –
